Consider 25 molecules from patent publication US9388179B2, “N-substituted indazole sulfonamide compounds with selective activity in voltage-gated sodium channels” (Merck Sharp & Dohme Corp., priority 2012, dated 2016).

Experiment [1] deals with T1, human Nav1.7 channels stably expressed in HEK 293 cells (Homo sapiens, UniProt Q15858).
T1 construct: expressed in transfected cells; host or cells: HEK 293
In words: PatchXpress 7000 automated patch-clamp, inactivated state block. The settings on record: PatchXpress technique; read-out: Nav 1.7 potency. In kind it is cell-based. How it is done:
(§1) For all electrophysiology experiments, offline analysis was used to correct for current rundown and to determine percent inhibition as a function of drug concentration. IC50 values were determined by fitting to the Hill equation.
(§2) Sodium Current Measurements on the PatchXpress 7000®:
(§3) To measure inactivated state block of sodium channels, test compounds were characterized in an automated PatchXpress® assay (Molecular Devices) using a double-pulse protocol on human Nav1.7 and Nav1.5 channels stably expressed in HEK 293 cells. Cells were held at a potential 20 mV negative to V0.5 inact. An 8000 ms pre-pulse 7 mV positive to V0.5 inact was given followed by a hyperpolarizing 2 ms pulse to −120 mV and a 20 ms test pulse to −20 mV. Protocol was applied to cells in the absence, presence of compound and after washout. The temperature of PatchXpress instruments was maintained at 22° C. The following recording solutions were used. Internal solution (mM): 30 CsCl, 5 HEPES, 10 EGTA, 120 CsF, 5 NaF, 2 MgCl2. External solution (mM): 120 NMDG, 40 NaCl, 1 KCl, 0.5 MgCl2, 5 HEPES, 2.7 CaCl2.

For experiment [2], the target named is T2, human Nav1.5 channels stably expressed in HEK 293 cells (Homo sapiens, UniProt Q14524).
T2 construct: expressed in transfected cells; host or cells: HEK 293
Described as above. Format: cell-based. The settings on record: PatchXpress technique. On the procedure: as §1, §2, §3

T1 sequence (Q15858 whole entry): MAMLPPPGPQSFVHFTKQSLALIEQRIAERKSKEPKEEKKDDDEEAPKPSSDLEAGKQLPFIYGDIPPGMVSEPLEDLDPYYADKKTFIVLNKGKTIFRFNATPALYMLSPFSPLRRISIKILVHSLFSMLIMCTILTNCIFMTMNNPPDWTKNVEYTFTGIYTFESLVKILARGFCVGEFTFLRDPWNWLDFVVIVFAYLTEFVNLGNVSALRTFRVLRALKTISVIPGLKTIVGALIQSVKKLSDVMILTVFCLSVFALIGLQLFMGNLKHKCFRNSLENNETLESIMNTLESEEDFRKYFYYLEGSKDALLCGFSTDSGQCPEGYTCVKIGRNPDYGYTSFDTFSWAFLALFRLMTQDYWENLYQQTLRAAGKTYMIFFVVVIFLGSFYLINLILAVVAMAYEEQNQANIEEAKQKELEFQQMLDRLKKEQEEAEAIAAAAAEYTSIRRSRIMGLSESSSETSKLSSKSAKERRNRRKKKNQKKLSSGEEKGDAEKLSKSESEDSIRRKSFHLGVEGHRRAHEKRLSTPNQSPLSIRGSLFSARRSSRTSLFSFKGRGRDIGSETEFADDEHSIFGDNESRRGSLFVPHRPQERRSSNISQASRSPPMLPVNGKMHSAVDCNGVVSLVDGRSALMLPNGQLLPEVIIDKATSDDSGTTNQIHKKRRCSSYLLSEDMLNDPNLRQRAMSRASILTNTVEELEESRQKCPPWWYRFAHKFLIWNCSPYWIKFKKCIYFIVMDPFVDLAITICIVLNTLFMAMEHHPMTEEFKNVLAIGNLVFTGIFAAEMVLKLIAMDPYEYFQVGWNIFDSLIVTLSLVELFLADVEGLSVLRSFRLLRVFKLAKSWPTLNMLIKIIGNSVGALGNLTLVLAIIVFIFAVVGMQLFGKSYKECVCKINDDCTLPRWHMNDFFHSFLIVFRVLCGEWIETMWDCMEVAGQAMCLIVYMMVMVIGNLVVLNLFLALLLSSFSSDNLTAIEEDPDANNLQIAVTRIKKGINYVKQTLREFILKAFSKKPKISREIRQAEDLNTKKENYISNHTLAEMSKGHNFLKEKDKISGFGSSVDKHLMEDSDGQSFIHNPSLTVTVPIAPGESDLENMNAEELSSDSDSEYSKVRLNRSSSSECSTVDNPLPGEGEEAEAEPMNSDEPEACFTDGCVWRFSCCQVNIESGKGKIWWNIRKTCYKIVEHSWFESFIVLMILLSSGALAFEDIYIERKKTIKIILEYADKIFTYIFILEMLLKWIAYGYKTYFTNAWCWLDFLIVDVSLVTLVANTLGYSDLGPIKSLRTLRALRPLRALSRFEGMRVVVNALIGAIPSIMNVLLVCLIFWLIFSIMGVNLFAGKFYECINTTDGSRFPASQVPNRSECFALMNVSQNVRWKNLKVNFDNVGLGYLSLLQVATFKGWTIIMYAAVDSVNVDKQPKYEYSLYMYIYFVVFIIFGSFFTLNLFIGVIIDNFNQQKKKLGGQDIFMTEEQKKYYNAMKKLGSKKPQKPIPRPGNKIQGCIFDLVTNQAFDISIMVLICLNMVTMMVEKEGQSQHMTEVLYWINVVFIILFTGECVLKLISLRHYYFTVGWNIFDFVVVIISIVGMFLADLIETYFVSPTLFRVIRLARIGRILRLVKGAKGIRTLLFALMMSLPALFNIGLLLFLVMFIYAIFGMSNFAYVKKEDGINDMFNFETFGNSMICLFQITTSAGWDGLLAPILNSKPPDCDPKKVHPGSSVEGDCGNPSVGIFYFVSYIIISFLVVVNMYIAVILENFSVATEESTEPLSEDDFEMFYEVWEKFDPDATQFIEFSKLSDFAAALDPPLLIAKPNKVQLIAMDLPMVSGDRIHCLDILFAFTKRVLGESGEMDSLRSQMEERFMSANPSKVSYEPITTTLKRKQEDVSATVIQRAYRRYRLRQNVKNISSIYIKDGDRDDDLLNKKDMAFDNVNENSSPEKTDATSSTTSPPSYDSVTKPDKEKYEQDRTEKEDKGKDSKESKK
T2 sequence (Q14524 whole entry): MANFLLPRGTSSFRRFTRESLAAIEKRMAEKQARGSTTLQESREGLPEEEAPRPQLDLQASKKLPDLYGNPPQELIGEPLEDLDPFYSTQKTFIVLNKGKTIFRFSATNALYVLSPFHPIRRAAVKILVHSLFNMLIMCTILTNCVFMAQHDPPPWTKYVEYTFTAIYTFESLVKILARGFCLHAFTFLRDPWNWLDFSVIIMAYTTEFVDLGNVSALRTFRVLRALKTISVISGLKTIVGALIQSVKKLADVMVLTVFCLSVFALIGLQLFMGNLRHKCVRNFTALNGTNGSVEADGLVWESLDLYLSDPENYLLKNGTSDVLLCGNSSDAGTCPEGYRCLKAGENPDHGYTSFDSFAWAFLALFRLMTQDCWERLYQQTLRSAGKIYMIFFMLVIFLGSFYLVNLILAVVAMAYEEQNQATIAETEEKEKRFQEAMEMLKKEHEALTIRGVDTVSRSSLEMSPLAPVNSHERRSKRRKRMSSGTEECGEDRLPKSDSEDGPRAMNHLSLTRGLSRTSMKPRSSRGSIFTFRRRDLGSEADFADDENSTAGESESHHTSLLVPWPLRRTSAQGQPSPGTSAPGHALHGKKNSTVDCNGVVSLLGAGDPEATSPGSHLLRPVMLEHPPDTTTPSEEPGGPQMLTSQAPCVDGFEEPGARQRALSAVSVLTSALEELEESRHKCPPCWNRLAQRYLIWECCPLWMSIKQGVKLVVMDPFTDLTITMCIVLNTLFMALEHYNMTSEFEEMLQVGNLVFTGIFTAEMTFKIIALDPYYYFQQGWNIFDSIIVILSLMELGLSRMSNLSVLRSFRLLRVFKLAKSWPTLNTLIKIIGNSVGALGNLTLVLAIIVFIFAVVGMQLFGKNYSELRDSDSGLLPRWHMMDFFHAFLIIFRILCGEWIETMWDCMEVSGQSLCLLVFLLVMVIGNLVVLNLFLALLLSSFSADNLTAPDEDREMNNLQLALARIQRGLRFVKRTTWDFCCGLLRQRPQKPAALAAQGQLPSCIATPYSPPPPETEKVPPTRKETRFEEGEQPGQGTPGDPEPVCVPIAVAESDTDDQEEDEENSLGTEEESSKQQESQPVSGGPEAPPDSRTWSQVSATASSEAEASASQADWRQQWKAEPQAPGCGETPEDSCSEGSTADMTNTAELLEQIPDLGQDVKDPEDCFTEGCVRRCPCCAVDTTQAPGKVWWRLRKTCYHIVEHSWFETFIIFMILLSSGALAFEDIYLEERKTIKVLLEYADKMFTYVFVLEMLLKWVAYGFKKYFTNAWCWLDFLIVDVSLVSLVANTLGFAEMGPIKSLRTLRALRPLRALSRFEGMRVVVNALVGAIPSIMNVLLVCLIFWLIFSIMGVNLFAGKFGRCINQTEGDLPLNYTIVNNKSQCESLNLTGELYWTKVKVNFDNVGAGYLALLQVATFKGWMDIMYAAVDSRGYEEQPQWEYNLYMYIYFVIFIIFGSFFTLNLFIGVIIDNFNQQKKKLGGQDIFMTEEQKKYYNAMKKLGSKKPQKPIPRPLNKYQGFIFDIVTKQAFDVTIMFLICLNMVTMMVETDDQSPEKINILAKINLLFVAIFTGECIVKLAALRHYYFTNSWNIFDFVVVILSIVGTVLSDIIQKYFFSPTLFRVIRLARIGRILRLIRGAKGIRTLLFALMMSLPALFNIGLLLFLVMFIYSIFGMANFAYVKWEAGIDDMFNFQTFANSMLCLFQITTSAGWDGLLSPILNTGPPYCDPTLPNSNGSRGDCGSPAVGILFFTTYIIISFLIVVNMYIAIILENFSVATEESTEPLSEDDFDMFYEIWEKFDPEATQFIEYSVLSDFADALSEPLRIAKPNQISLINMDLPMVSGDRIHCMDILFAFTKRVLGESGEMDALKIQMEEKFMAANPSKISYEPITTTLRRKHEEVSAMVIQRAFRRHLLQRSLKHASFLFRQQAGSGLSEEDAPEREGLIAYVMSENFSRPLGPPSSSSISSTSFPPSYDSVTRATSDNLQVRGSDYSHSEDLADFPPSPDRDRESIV

Turning to `C[C@H](c1cccc2c1CNCC2)n1ncc2cc(S(=O)(=O)Nc3cccc(F)n3)c(F)cc21` [Ex-37, 6-fluoro-N-(6-fluoropyridin-2-yl)-1-[(1R)-1-(1,2,3,4-tetrahydroisoquinolin-8-yl)ethyl]-1H-indazole-5-sulfonamide], in experiment [1], the IC50 is 372 nM. Also, the “Ratio 1.5:1.7 = Nav 1.5 potency (nM)/Nav1.7 potency (nM)” value (from here on “Ratio 1.5:1.7 = Nav 1.5 potency”) in experiment [2] was 64.
Turning to `C[C@H](c1ccccc1C1=CCNCC1)n1ncc2cc(S(=O)(=O)Nc3cccc(F)n3)c(F)cc21` [Ex-48, 6-fluoro-N-(6-fluoropyridin-2-yl)-1-{(1R)-1-[2-(1,2,3,6-tetrahydropyridin-4-yl)phenyl]ethyl}-1H-indazole-5-sulfonamide], the IC50 in experiment [1] was 1120 nM. Also, the “Ratio 1.5:1.7 = Nav 1.5 potency” value in experiment [2] was 5.
Regarding `Cc1cc2c(cnn2Cc2cccc3c2CC(N)CC3)cc1S(=O)(=O)Nc1cccc(F)n1` (centres unmarked) [Ex-61, 1-[(7-amino-5,6,7,8-tetrahydronaphthalen-1-yl)methyl]-N-(6-fluoropyridin-2-yl)-6-methyl-1H-indazole-5-sulfonamide], the IC50 in experiment [1] is 61 nM. For the same molecule, the “Ratio 1.5:1.7 = Nav 1.5 potency” value in experiment [2] is reported as 171.
In the case of `NCC(F)c1ccccc1Cn1ncc2cc(S(=O)(=O)Nc3cccc(F)n3)c(F)cc21` (centres unmarked) [Ex-38, 1-[2-(2-amino-1-fluoroethyl)benzyl]-6-fluoro-N-(6-fluoropyridin-2-yl)-1H-indazole-5-sulfonamide], the IC50 in experiment [1] worked out at 185 nM. Besides, the “Ratio 1.5:1.7 = Nav 1.5 potency” value in experiment [2] came out at 162.
Taken in the same sequence, the figures for `NCCCc1ccccc1Cn1ncc2cc(S(=O)(=O)Nc3nccs3)c(F)cc21` [Ex-27, 1-[2-(3-aminopropyl)benzyl]-6-fluoro-N-1,3-thiazol-2-yl-1H-indazole-5-sulfonamide] were 5 nM and 48.
Consider `C[C@H](c1cccc2c1CNCC2)n1ncc2cc(S(=O)(=O)Nc3nccs3)c(F)cc21` [Ex-28, 6-fluoro-1-[(1R)-1-(1,2,3,4-tetrahydroisoquinolin-8-yl)ethyl]-N-1,3-thiazol-2-yl-1H-indazole-5-sulfonamide], for which, in experiment [1], the IC50 amounted to 25 nM. The “Ratio 1.5:1.7 = Nav 1.5 potency” value in experiment [2] came out at 870.
On to `O=S(=O)(Nc1cccc(F)n1)c1cc2cnn(Cc3ccccc3I)c2cc1F` [Ex-41, 6-fluoro-N-(6-fluoropyridin-2-yl)-1-(2-iodobenzyl)-1H-indazole-5-sulfonamide], for which, in experiment [1], the IC50 is 1070 nM. In experiment [2], the “Ratio 1.5:1.7 = Nav 1.5 potency” value came to 7.
As to `C[C@H](c1ccccc1CCCN)n1ncc2cc(S(=O)(=O)Nc3cccc(F)n3)c(F)cc21` [Ex-33, 1-{(1R)-1-[2-(3-amino-propyl)phenyl]ethyl}-6-fluoro-N-(6-fluoropyridin-2-yl)-1H-indazole-5-sulfonamide], the IC50 in experiment [1] came to 381 nM. In addition, the “Ratio 1.5:1.7 = Nav 1.5 potency” value in experiment [2] is 228.
In the case of `C[C@H](c1ccccc1C1CNC1)n1ncc2cc(S(=O)(=O)Nc3cccc(F)n3)c(F)cc21` [Ex-40, 1-[(1R)-1-(2-azetidin-3-ylphenyl)ethyl]-6-fluoro-N-(6-fluoropyridin-2-yl)-1H-indazole-5-sulfonamide], in experiment [1], the IC50 stood at 775 nM. Further, the “Ratio 1.5:1.7 = Nav 1.5 potency” value in experiment [2] amounted to 11.
Consider `Cc1cc2c(cnn2Cc2cccc3c2CC(N)CC3)cc1S(=O)(=O)Nc1nccs1` (centres unmarked) [Ex-62, 1-[(7-amino-5,6,7,8-tetrahydronaphthalen-1-yl)methyl]-6-methyl-N-1,3-thiazol-2-yl-1H-indazole-5-sulfonamide], for which the IC50 in experiment [1] was determined as 23 nM. Further, the “Ratio 1.5:1.7 = Nav 1.5 potency” value in experiment [2] worked out at 762.
For `NC1CCc2cccc(Cn3ncc4cc(S(=O)(=O)Nc5nccs5)c(F)cc43)c2C1` (single isomer, unassigned) [Ex-26, (R or S)-1-[(7-amino-5,6,7,8-tetrahydronaphthalen-1-yl)methyl]-6-fluoro-N-1,3-thiazol-2-yl-1H-indazole-5-sulfonamide], in experiment [1], the IC50 came to 5 nM. Also, in experiment [2], the “Ratio 1.5:1.7 = Nav 1.5 potency” value amounted to 3231.
For `NC1CCc2cccc(Cn3ncc4cc(S(=O)(=O)Nc5ncc(Cl)s5)c(F)cc43)c2C1` (centres unmarked) [Ex-53, 1-[(7-amino-5,6,7,8-tetrahydronaphthalen-1-yl)methyl]-N-(5-chloro-1,3-thiazol-2-yl)-6-fluoro-1H-indazole-5-sulfonamide], in experiment [1], the IC50 amounted to 8 nM. Besides, in experiment [2], the “Ratio 1.5:1.7 = Nav 1.5 potency” value worked out at 1193.
Taken in the same sequence, the figures for `C[C@H](c1ccccc1C#C[C@@H]1CCCC[C@@H]1N)n1ncc2cc(S(=O)(=O)Nc3cccc(F)n3)c(F)cc21` [Ex-47, 1-[(1R)-1-(2-{[(1S,2S)-2-amino-cyclohexyl]ethynyl}phenyl)ethyl]-6-fluoro-N-(6-fluoropyridin-2-yl)-1H-indazole-5-sulfonamide] were 546 nM and 15.
Regarding `O=S(=O)(Nc1nccs1)c1cc2cnn(Cc3ccccc3C3=CCNCC3)c2cc1F` [Ex-30, 6-fluoro-1-[2-(1,2,3,6-tetrahydropyridin-4-yl)benzyl]-N-1,3-thiazol-2-yl-1H-indazole-5-sulfonamide], in experiment [1], the IC50 stood at 82 nM. For the same molecule, the “Ratio 1.5:1.7 = Nav 1.5 potency” value in experiment [2] worked out at 326.
The corresponding values for `Cc1cc2c(cnn2[C@H](C)c2cccc3c2CNCC3)cc1S(=O)(=O)Nc1cccc(F)n1` [Ex-60, N-(6-fluoropyridin-2-yl)-6-methyl-1-[(1R)-1-(1,2,3,4-tetrahydroisoquinolin-8-yl)ethyl]-1H-indazole-5-sulfonamide] are 58 nM and 457.
For the molecule `C[C@H](c1ccccc1C#CCN)n1ncc2cc(S(=O)(=O)Nc3cccc(F)n3)c(F)cc21` [Ex-46, 1-{(1R)-1-[2-(3-aminoprop-1-yn-1-yl)phenyl]ethyl}-6-fluoro-N-(6-fluoropyridin-2-yl)-1H-indazole-5-sulfonamide], the IC50 in experiment [1] is 423 nM. Besides, in experiment [2], the “Ratio 1.5:1.7 = Nav 1.5 potency” value stood at 41.
Take `NCc1ccccc1Cn1ncc2cc(S(=O)(=O)Nc3cccc(F)n3)c(F)cc21` [Ex-35, 1-[2-(aminomethyl)benzyl]-6-fluoro-N-(6-fluoropyridin-2-yl)-1H-indazole-5-sulfonamide]: the IC50 in experiment [1] was determined as 568 nM. In addition, in experiment [2], the “Ratio 1.5:1.7 = Nav 1.5 potency” value is recorded as 53.
On to `NCCCc1ccccc1Cn1ncc2cc(S(=O)(=O)Nc3cccc(F)n3)c(F)cc21` [Ex-32, 1-[2-(3-amino-propyl)benzyl]-6-fluoro-N-(6-fluoropyridin-2-yl)-1H-indazole-5-sulfonamide], for which, in experiment [1], the IC50 is 64 nM. Moreover, in experiment [2], the “Ratio 1.5:1.7 = Nav 1.5 potency” value is listed as 50.
As to `NC1CCc2cccc(Cn3ncc4cc(S(=O)(=O)Nc5cccc(F)n5)c(F)cc43)c2C1` (single isomer, unassigned) [Ex-31, (R or S)-1-[(7-amino-5,6,7,8-tetrahydronaphthalen-1-yl)methyl]-6-fluoro-N-(6-fluoropyridin-2-yl)-1H-indazole-5-sulfonamide], in experiment [1], the IC50 amounted to 56 nM. For the same molecule, in experiment [2], the “Ratio 1.5:1.7 = Nav 1.5 potency” value turned out to be 772.
Turning to `NCC#Cc1ccccc1Cn1ncc2cc(S(=O)(=O)Nc3cccc(F)n3)c(F)cc21` [Ex-44, 1-[2-(3-aminoprop-1-yn-1-yl)benzyl]-6-fluoro-N-(6-fluoropyridin-2-yl)-1H-indazole-5-sulfonamide], the IC50 in experiment [1] is 2530 nM. In addition, the “Ratio 1.5:1.7 = Nav 1.5 potency” value in experiment [2] was 10.
The corresponding values for `NC1Cc2cccc(Cn3ncc4cc(S(=O)(=O)Nc5cccc(F)n5)c(F)cc43)c2C1` (centres unmarked) [Ex-39, 1-[(2-amino-2,3-dihydro-1H-inden-4-yl)methyl]-6-fluoro-N-(6-fluoropyridin-2-yl)-1H-indazole-5-sulfonamide] are 232 nM and 129.
In the case of `C[C@H](c1ccccc1C#CCN)n1ncc2cc(S(=O)(=O)Nc3ncc(Cl)s3)c(F)cc21` [Ex-56, 1-{(1R)-1-[2-(3-aminoprop-1-yn-1-yl)phenyl]ethyl}-N-(5-chloro-1,3-thiazol-2-yl)-6-fluoro-1H-indazole-5-sulfonamide], in experiment [1], the IC50 came to 244 nM. For the same molecule, the “Ratio 1.5:1.7 = Nav 1.5 potency” value in experiment [2] was found to be 39.
For `C[C@H](c1ccccc1C#C[C@H]1CCCC[C@H]1N)n1ncc2cc(S(=O)(=O)Nc3cccc(F)n3)c(F)cc21` [Ex-50, 1-[(1R)-1-(2-{[(1R,2R)-2-amino-cyclohexyl]ethynyl}phenyl)ethyl]-6-fluoro-N-(6-fluoropyridin-2-yl)-1H-indazole-5-sulfonamide], the IC50 in experiment [1] was 689 nM. The “Ratio 1.5:1.7 = Nav 1.5 potency” value in experiment [2] was determined as 17.
For the molecule `CC(C)(N)CC#Cc1ccccc1Cn1ncc2cc(S(=O)(=O)Nc3cccc(F)n3)c(F)cc21` [Ex-45, 1-[2-(4-amino-4-methylpent-1-yn-1-yl)benzyl]-6-fluoro-N-(6-fluoropyridin-2-yl)-1H-indazole-5-sulfonamide], in experiment [1], the IC50 came out at 2040 nM. In addition, the “Ratio 1.5:1.7 = Nav 1.5 potency” value in experiment [2] was found to be 18.
`O=S(=O)(Nc1cccc(F)n1)c1cc2cnn(Cc3cccc4c3CNCC4F)c2cc1F` (centres unmarked) [Ex-49, 6-fluoro-N-(6-fluoropyridin-2-yl)-1-[(4-fluoro-1,2,3,4-tetrahydro-isoquinolin-8-yl)methyl]-1H-indazole-5-sulfonamide]: in experiment [1], the IC50 was 661 nM. Further, the “Ratio 1.5:1.7 = Nav 1.5 potency” value in experiment [2] is given as 45.
